Here are results for two compounds from paper PMC6426897, “Inhibition of NLRP3 inflammasome activation by cell-permeable stapled peptides” (Scientific Reports, 2019).

Where a SMILES comes first, the peptide text is derived from it. Bridges are numbered along the chain shown (N, C = ends). [ ]: non-standard residue; d: D form. R8 = C=CCCCCCC[C@@](C)(N)C(=O)O; S5 = C=CCCC[C@](C)(N)C(=O)O Where only a bound is given, the exact number is not on record here.

One series relates to THP-1 cells. Kind of series: Internalization of FAM-labeled peptides by flow cytometry. The class given is in vitro ADME, human. The note with it: THP-1, 37 °C, 4, 8 and 24 hours; FACS; three independent experiments. The procedure:
As NLRP3 and ASC are cytosolic proteins, we examined whether the designed peptides could be taken up by monocytic cells to exert their biological effects. To assess peptide internalization, ms_NLRP3^PYD, ms_ASC^PYD #5 and #6 peptides were labeled with the FAM fluorophore at the N-terminus. Internalization of the FAM-labeled peptides was measured as the mean fluorescence intensity (MFI) by fluorescence-assisted cell sorting (FACS). THP-1 cells were incubated with FAM-labeled ms_NLRP3^PYD (12.5, 25 and 50 μM), ms_ASC^PYD #5 and #6 peptides (50 and 100 μM) for 4, 8 and 24 hours. The internalization of the three FAM-labelled peptides was concentration dependent (Fig. 7A,B). […] We also examined the internalization of FAM-labeled peptides in THP-1 cells by confocal microscopy. THP-1 cells were incubated with FAM-ms_NLRP3^PYD (100 μM), FAM-ms_ASC^PYD #5 or FAM-ms_ASC^PYD #6 (100 μM) for 4, 8 and 18 hours. FAM-labeled peptides localized primarily in the cytosol, but not in the nucleus, of THP-1 cells (Fig. 7C).
THP-1 cells (0.5 × 10^6) were incubated with FAM-NLRP3^PYD (12.5-25-50 μM), FAM-ASC^PYD #5 or FAM-ASC^PYD #6 (50-100 μM) peptides in a 6 well-plate. After 4, 8 and 24 h incubation, THP-1 cells were washed twice with PBS and harvested. The analysis was performed on a BD FACSCANTO II (BD Biosciences), and the data were analyzed using FlowJo (Treestar).

The subject of series [1] is NLRP3 inflammasome. The series is described as follows: IL-1β release from THP-1 cells stimulated with LPS and nigericin (ELISA). It counts as cell-based, human. The note with it: THP-1, LPS 0.1 μg/ml 4 h, nigericin 10 μM 1 h, Fig. 8A. As for the experimental part: We next examined whether the ASC peptides could inhibit IL-1β production, which is regulated by the inflammasome. We used THP-1 human monocytic cells to study inflammasome activation as they express high levels of NLRP3, ASC, and pro-casp-1. THP-1 cells were incubated with ms_ASC^PYD #1–6 or ms_NLRP3^PYD peptides at increasing concentrations for 4 hours and were then stimulated with LPS for 4 hours, followed by the NLRP3 activator nigericin for 1 hour. IL-1β levels were measured in the culture supernatant. […] The ms_ASC^PYD peptides reduced IL-1β production from THP-1 cells in response to LPS/nigericin stimulation to variable degrees (Fig. 6A). […] We decided to continue investigating in detail the inhibitory effects of ms_ASC^PYD #5 and #6 peptides, as their estimated binding energies matched well with the experimental data of suppression of ASC-dependent IL-1 release in a dose-dependent manner. Since ms_ASCPYD #6 is the shorter version of ms_ASCPYD #5, this selection also enabled us to verify the effect of varying peptide lengths.
(§1) Human monocytic THP-1 cells (1 × 10^7 cells) were plated in a 10-cm tissue culture dish and treated with PMA (200 nM) overnight to differentiate monocytic cells into macrophages. Cells were then washed and allowed to rest in fresh media for another day. For stimulation, differentiated THP-1 cells were trypsinized and seeded in 96-well plates (2 × 10^6/well). Peripheral blood mononuclear cells were isolated by Ficoll-Hypaque density gradient centrifugation from buffy coats obtained from anonymous donors provided by the National University Hospital Blood Bank, Singapore. Isolation of monocytes was performed using negative selection with the Monocyte Isolation Kit II (Miltenyi Biotech), following the manufacturer’s instructions. Monocytes were plated in tissue culture non-treated 96-well plates (2.5 × 10^5/well) in 250 µl RPMI 1640-Glutamax media supplemented with 3% human AB serum (Gemini Bio Products).
(§2) THP-1 cells and monocytes were incubated with NLRP3^PYD (12.5–25–50 μM), ASC^PYD #5 (12.5-25-50-100 μM) or ASC^PYD #6 (12.5-25-50-100 μM) for the indicated durations. Cells were then washed once with PBS and primed with E. coli LPS (0.1 μg/ml, Invivogen) for 4 h followed by stimulation with nigericin (10 μM) for an additional 1 h or ATP ([…]) for an additional 30 min. The cell culture supernatants were then collected and centrifuged at 500 × g to remove cells and cellular debris.
(§3) IL-1β levels were measured using antibodies from eBioscience (cat. #14-7018-81 and #13-7016-85), following the manufacturer’s instructions. IL-18 levels were measured using antibodies from MBL (D044-3 and D045-6) following the manufacturer’s instructions. The absorbance was measured at 450 nm with the reference wavelength at 570 nm, using an M200 Infinite plate reader (Tecan).
(In general: In an ELISA, binding on a coated surface is turned into a signal by an enzyme label.)

In series [2] the test system is NLRP3 inflammasome. The series is described as follows: Western blot of processed IL-1β p17 and Casp-1 p20 in THP-1 supernatants and of pro-forms in lysates. The class given is cell-based, human. The following applies: THP-1, LPS/nigericin, Fig. 8D. The procedure:
as §2
Cell-free supernatants were mixed 1:4 to cold acetone and incubated at −20 °C for at least 1 h. The mixtures were then centrifuged at 15,000 rpm for 15 min at 4 °C. Supernatants were discarded and pellets re-suspended in 1X Laemmli buffer. Total cell lysates were prepared using RIPA buffer containing 150 mM NaCl, 0.5% sodium deoxycholate, 0.1% SDS, 50 mM Tris-HCl pH 8.0 and 1% Triton-X-100. Protein concentrations were determined by BCA assay (Thermo Scientific, cat. 23227) following the manufacturer’s instructions. Lysates were reconstituted in Laemmli buffer (20–50 μg), boiled and separated by SDS–PAGE, and transferred onto PVDF membranes. […]
(A western blot detects proteins with antibodies after separation by electrophoresis.)

In series [3] the test system is NLRP3 inflammasome. The series is described as follows: IL-1β secretion from LPS-primed primary human monocytes upon ATP stimulation (ELISA). The following applies: human blood monocytes, LPS 0.1 μg/ml 4 h, ATP 30 min; 25, 50 and 100 μM; Fig. 8B. It counts as cell-based. The procedure:
as §1, with “Products). […]” for “Products).”
as §3

Turning to `CC[C@H](C)[C@@H]1NC(=O)[C@H](CCCCN)NC(=O)[C@H](C)NC(=O)[C@H](CC(C)C)NC(=O)[C@H](CCCCN)NC(=O)[C@](C)(NC(=O)[C@H](C)NC(=O)[C@H](CCCNC(=N)N)NC(=O)[C@H](C)NC(=O)[C@@H](NC(C)=O)[C@@H](C)O)CCCCCCC=CCCC[C@@](C)(C(=O)N[C@@H](CCC(=O)O)C(=O)N[C@@H](CO)C(=O)N[C@H](C(N)=O)C(C)C)NC(=O)[C@H](CCCCN)NC1=O` [ms_ASC^PYD #5] (Ac-TARA[R8]KLAKIK[S5]ESV-NH2; staple 5-12), the “Fluorescent signal (MFI) of internalized peptide over time” value in the series on THP-1 cells is on record as “the fluorescent intensity subsequently decreased over-time”. Also, the “Inhibition of IL-1β production” value is more than 60% with NLRP3 inflammasome [1] (50 μM peptide) and more than 90% in the series on NLRP3 inflammasome [1] (100 μM peptide). In the series with NLRP3 inflammasome [2], the “Caspase-1 activation (caspase-1 p20 in supernatants)” value is on record as “reduced caspase-1 activation in a dose-dependent manner”. The “IL-1β secretion (in words)” value in the series on NLRP3 inflammasome [3] was “effectively inhibited”.

`CC[C@H](C)[C@@H]1NC(=O)[C@H](CCCCN)NC(=O)[C@H](C)NC(=O)[C@H](CCCCN)NC(=O)[C@H](CCCCN)NC(=O)[C@](C)(NC(=O)[C@H](C)NC(=O)[C@H](CCCNC(=N)N)NC(C)=O)CCCCCCC=CCCC[C@@](C)(C(=O)N[C@@H](CCC(=O)O)C(=O)N[C@@H](CO)C(=O)N[C@H](C(N)=O)C(C)C)NC(=O)[C@H](CCCCN)NC1=O` [ms_ASC^PYD #6] (Ac-RA[R8]KKAKIK[S5]ESV-NH2; staple 3-10): the results for the “Inhibition of IL-1β production” value in the series on NLRP3 inflammasome [1] (50 μM peptide) and in the series with NLRP3 inflammasome [1] (100 μM peptide) were more than 60% and more than 90%, respectively. In addition, in the series with NLRP3 inflammasome [2], the “Caspase-1 activation (caspase-1 p20 in supernatants)” value is on record as “reduced caspase-1 activation in a dose-dependent manner”. In addition, the “IL-1β secretion (in words)” value in the series with NLRP3 inflammasome [3] is “effectively inhibited”.
